Measurements published in patent EP0186452A2, “Organosilicon compounds process for their production and pharmaceutical compositions thereof” (SANWA KAGAKU KENKYUSHO CO., LTD., priority 1984, dated 1986).

What was measured:
[1] = Acute toxicity, oral dosage to mice, LD50; conditions: mouse, in vivo, single dose suspended in 0.1% P-1570, ICR female mice, observed 21 days
Source text: Each test compound suspended in 0.1% P-1570 was orally and forcedly dosed through a gastric probe to ICR female mice (21 - 22g, age of about 5 weeks). An identification number was given to each mouse, and weighing and observation on general behaviour were done just before the dosage and each day after the same. Each dead mouse was subjected without delay to an autopsy to check the same, more particularly in detail on enterona. All living mice were killed at the 21st day from the dosage to carry out an autopsy for checking the same, more particularly on the entrails.
An LD50 was calculated in accordance with Leed.and Munch's method.

B-16 melanoma = experiment: Anti-tumor action to B-16 melanoma transplanted under skin of mice; format: in vivo, BDF1 female mice; conditions: Mus musculus, B16, 504 h, 5th and 9th day, tumor weight at 21st day, read-out: Inhibition Ratio (%); for inhibition in vivo at 250 mg/kg: 250 mg/kg/day x 3, oral at 1st; for inhibition in vivo at 500 mg/kg: 500 mg/kg/day x 3, oral at 1st; for inhibition in vivo at 125 mg/kg: 125 mg/kg/day x 3, oral at 1st
Source text: A cancer cell of B-16 melanoma (1 x 10^5 cells) was transplanted under skin of BDF1 female mice (age of about 5 weeks), and each of testing compounds was orally dosed at lst, 5th and 9th day after the transplantation. At 21st day after the transplantation, the mice were killed to measure a weight of the formed cancerous tumor and to finally determine an inhibition ratio due to the dosage of the test compound.

colon-38 carcinoma = experiment: Anti-tumor action to colon-38 carcinoma transplanted under skin of mice; format: in vivo, BDF1 female mice; conditions: 5th and 9th day, tumor weight at 28th day vs non-treated control; for inhibition in vivo at 338 mg/kg: 338 mg/kg/day x 3, oral at 1st; for inhibition in vivo at 323 mg/kg: 323 mg/kg/day x 3, oral at 1st
Description: 0.02 ml of 10(W/V) cell suspension prepared from a solid cancer cell (colon-38 carcinoma) was transplanted under skin of BDF1 female mice (20 - 21g, age of about 5 weeks), and each test compound was orally dosed at lst, 5th and 9th day after the transplantation. major and minor axes of the forming cancerous tumor were measured at llth, 14th, 18th, 21st, 25th and 28th day after the transplantation to calcuate the volume ofthe cancerous tumor in accordance with the equation: [formula] • wherein L: major axis (mm) • W: minor axis (mm)
At 28th day from the transplantation, the mice were killed and each of the cancerous tumors was enucleated to measure its weight and to determine an inhibition ratio in comparison with that in a non-treated control group.

[2] = Mus musculus, 672 h, read-out: Inhibition Ratio (%)

Row | Compound | LD50 at 504 h [1] [mg/kg] | inhibition in vivo at 250 mg/kg (B-16 melanoma) [%] | inhibition in vivo at 500 mg/kg (B-16 melanoma) [%] | further results
1 | CCCCCCCC[Si](C)(C)CCSCCN [Example 1, 2-[[2-(Dimethyl-n-octylsilyl)ethyl]thio]ethylamine] | > 1500 | – | – | –
2 | CC(C)[Si](C)(C)CCSCCN [Example 2, Z-([2-(Isopropyldimethylsilyl)ethyl]thio]ethylamine] | 1620 | 23.8 | 36.1 | –
3 | CCCC[Si](C)(C)CCSCCN [Example 3, 2-[[2-(n-Butyldimethylsilyl)ethyl]thio]ethylamine] | > 1500 | – | – | –
4 | C[Si](CCSCCN)(c1ccccc1)c1ccccc1 [Example 4, 2-[[2-(Methyldiphenylsilyl)ethyl]thio)ethylamine] | > 1500 | – | – | –
5 | CC(C)[Si](C)(C)CCSCCCN [Example 5, 3-[[2-(Isopropyldimethylsilyl)ethyl]thio]propylamine] | 750 | 21.4 | 50.6 | –
6 | CC(C)[Si](C)(C)CCCSCCN [Example 6, Z-[[3-(Isopropyldimethylsilyl)propyl]thio]ethylamine] | 1500 | – | – | –
7 | CC(C)(C)[Si](C)(C)CCCSCCN [Example 7, 2[[3-(t-Butyldimethylsilyl)propyl]thio]ethylamine] | > 1500 | 50 | 32.7 | –
8 | CC(C)[Si](C)(C)CCCSCCCN [Example 8, 3-[[3-(Isopropyldimethylsilyl)propyl]thio]propylamine] | > 1500 | 61.1 | 46.3 | –
9 | CC(C)(C)[Si](C)(C)CCCSCCCN [Example 9, 3-[[3-(t-Butyldimethylsilyl)propyl]thio)propylamine] | > 1500 | 57.3 | 51.9 | –
10 | CCCC[Si](C)(C)CCCSCCCN [Example 10, 3-[[3-(n-Butyldimethylsilyl)propyl)thio)propylamine] | > 1500 | 50.4 | 29.8 | –
11 | C[Si](C)(CCCSCCCN)c1ccccc1 [Example 11, 3[[3-(Dimethylphenylsilyl)propyl]thio]propylamine] | > 1500 | 38.7 | 45.4 | –
12 | CCCCCCCC[Si](C)(C)CCSCCNC(=O)n1cc(F)c(=O)[nH]c1=O [Reference Example 1, 1-[2-[[2-dimethyl-n-octylsilylethyl)thio]ethylcarbamoyl]-5-fluorouracil] | 1580 | – | – | inhibition in vivo at 345 mg/kg (colon-38 carcinoma; Mus musculus, 672 h, 345 mg/kg/day x 3, oral at 1st, read-out: Inhibition Ratio (%)): 80%
13 | CC(C)[Si](C)(C)CCSCCNC(=O)n1cc(F)c(=O)[nH]c1=O [Reference Example 2, 1-[2-[[2-(Dimethylisopropylsilyl)ethyl]thio]-ethylcarbamoyl]-5-fluorouracil] | 1380 | – | – | inhibition in vivo at 300 mg/kg (B-16 melanoma; 300 mg/kg/day x 3, oral at 1st): 79.7%; inhibition in vivo at 289 mg/kg (colon-38 carcinoma; Mus musculus, 672 h, 289 mg/kg/day x 3, oral at 1st, read-out: Inhibition Ratio (%)): 89.8%
14 | CCCC[Si](C)(C)CCSCCNC(=O)n1cc(F)c(=O)[nH]c1=O [compound 3, 1-[2-[[2-(Dimethyl-n-butylsilyl)ethyl]thio]-ethylcarbamoyl]-5-fluorouracil] | 1380 | – | – | inhibition in vivo at 300 mg/kg (colon-38 carcinoma; Mus musculus, 672 h, 300 mg/kg/day x 3, oral at 1st, read-out: Inhibition Ratio (%)): 81.2%
15 | C[Si](CCSCCNC(=O)n1cc(F)c(=O)[nH]c1=O)(c1ccccc1)c1ccccc1 [compound 4, 1-[2-[[2-(Diphenylmethylsilyl)ethyl]thio]-ethylcarbamoyl]-5-fluorouracil] | 1400 | – | – | Inhibition Ratio (%) (colon-38 carcinoma; 366 mg/kg/day x 3, oral at 1st): 32.2%
16 | CC(C)[Si](C)(C)CCSCCCNC(=O)n1cc(F)c(=O)[nH]c1=O [compound 5, 1-[3-[[2-(Dimethylisopropylsilyl)ethyl]thio]-propylcarbamoyl]-5-fluorouracil] | 2250 | 19.4 | – | inhibition in vivo at 125 mg/kg (B-16 melanoma): 17.6%; inhibition in vivo at 338 mg/kg (colon-38 carcinoma; [2]): 98.4%
17 | CC(C)[Si](C)(C)CCCSCCNC(=O)n1cc(F)c(=O)[nH]c1=O [compound 6, 1-[2-[[3-(Dimethylisopropylsilyl)propyl]thio]-ethylcarbamoyl]-5-fluorouracil] | 1820 | – | – | inhibition in vivo at 338 mg/kg (colon-38 carcinoma; [2]): 95.9%
18 | CC(C)(C)[Si](C)(C)CCCSCCNC(=O)n1cc(F)c(=O)[nH]c1=O [compound 7, 1-{2-{[3-(Dimethyl-t-butylsilyl]propyl)thio}-ethylcarbamoyl}-5-fluorouracil] | 1380 | 43.1 | – | inhibition in vivo at 311 mg/kg (colon-38 carcinoma; Mus musculus, 672 h, 311 mg/kg/day x 3, oral at 1st, read-out: Inhibition Ratio (%)): 81%
19 | CC(C)[Si](C)(C)CCCSCCCNC(=O)n1cc(F)c(=O)[nH]c1=O [compound 8, 1-{3-{[3-(Dimethylisopropylsilyl)propyl]thio}-propylcarbamoyl}-5-fluorouracil] | 2120 | 45.7 | – | inhibition in vivo at 125 mg/kg (B-16 melanoma): 32.8%; inhibition in vivo at 350 mg/kg (colon-38 carcinoma; Mus musculus, 672 h, 350 mg/kg/day x 3, oral at 1st, read-out: Inhibition Ratio (%)): 90.3%
20 | CC(C)(C)[Si](C)(C)CCCSCCCNC(=O)n1cc(F)c(=O)[nH]c1=O [compound 9, 1-{3-{[3-(t-Butyldimethylsilyl)propyl]thio}-propylcarbamoyl}-5-fluorouracil] | 1800 | 46.3 | – | inhibition in vivo at 125 mg/kg (B-16 melanoma): 55.2%; inhibition in vivo at 323 mg/kg (colon-38 carcinoma; [2]): 90.1%
21 | CCCC[Si](C)(C)CCCSCCCNC(=O)n1cc(F)c(=O)[nH]c1=O [compound 10, 1-{3-{[3-(n-Butyldimethylsilyl)propyl]thio}-propylcarbamoyl}-5-fluorouracil] | 1850 | 88.5 | – | inhibition in vivo at 125 mg/kg (B-16 melanoma): 69.5%; inhibition in vivo at 323 mg/kg (colon-38 carcinoma; [2]): 92.3%
22 | C[Si](C)(CCCSCCCNC(=O)n1cc(F)c(=O)[nH]c1=O)c1ccccc1 [compound 11, 1-{3-{[3-(Dimethylphenylsilyl)propyl]thio}-propylcarbamoyl}-5-fluorouracil] | 1800 | 70.5 | – | inhibition in vivo at 125 mg/kg (B-16 melanoma): 82.2%; inhibition in vivo at 339 mg/kg (colon-38 carcinoma; Mus musculus, 672 h, 339 mg/kg/day x 3, oral at 1st, read-out: Inhibition Ratio (%)): 97.9%
